In PubChem BioAssay AID1963872 (Molecular Pharmacology Branch, DTP, NCI, 2024):

Tested on: KRAS patient-derived spheroids with HUVEC/MSC, viability
Experiment: Anticancer human tumor 519858-162-T-J1-PDC patient-derived colon adenocarcinoma cell line growth inhibition [KRAS2]
Settings: for IC50: curve of first compound; for viability, T/C: stronger effect = lower value
Source text: Multicellular complex tumor spheroid response to RAS pathway inhibitors in combination with a targeted agents in patient-derived cell lines with oncogenic KRAS variants from multiple cancer types
A high-throughput screen of multi-cell type tumor spheroids was designed to identify active combinations of targeted small molecules and KRAS pathway inhibitors. Complex spheroids include a stromal component modeled by human endothelial cells (HUVEC) and fibroblasts modeled by human mesenchymal stem cells (MSCs). The concentration ranges selected for each drug and investigational agent were based upon clinically achievable concentrations if the clinical Cmax of the agent was known.
Compounds. The drugs and investigational agents: BI-3406 (NSC825286), BAY-293 (NSC824723), batoprotafib (TNO155; NSC825523), sotorasib (AMG 510; NSC818433), MRTX1257 (NSC819558), elimusertib (BAY 1895344; NSC800525), molibresib (GSK525762; NSC774829), temuterkib (LY3214996; NSC803410), venetoclax (NSC766270), alisertib (NSC759677), olaparib (NSC753686), talazoparib (NSC767125), erdafitinib (NSC781556), ipatasertib (NSC767898), cabozantinib (NSC761068), nintedanib (NSC756659), abemaciclib (NSC768073), docetaxel (NSC628503), trametinib (NSC758246), and sapanisertib (NSC764658) were obtained from the National Cancer Institute (NCI) Developmental Therapeutics Program Chemical Repository. The FDA-approved anticancer drug set is available from the Developmental Therapeutics Program. […] The stock solutions were prepared in dimethyl sulfoxide (DMSO, Sigma-Aldrich, St. Louis, MO, cat. D2650) at 800-fold the tested concentration and stored at -70 degrees C prior to their use. All drugs and investigational agents were tested over a range starting from a high concentration at or near the clinical Cmax and decreasing in half-log increments. If the clinical Cmax for an agent had not been determined, the highest concentration tested was 10 microM.
Cell Culture. All cells were maintained in an incubator at 37 degrees C and 5% CO2 with 95% humidity. The PDC lines were cultured according to standard operating procedures established by the NCI PDMR (https://pdmr.cancer.gov/sops/default.htm). Briefly, all PDCs were thawed and cultured in Matrigel-coated flasks prepared with a working solution of 1X Ham's F-12 nutrient mix, without supplementation (Invitrogen, Waltham, MA, cat. 11765054), 100 U/mL penicillin-streptomycin (Invitrogen, cat. 15140122), and 2.5% Matrigel (Corning Inc., Corning, NY, cat. 354248) for the first three passages. All PDCs were cultured in complete DMEM/F-12 media containing advanced DMEM/F-12 (Invitrogen, cat. 12634028), 4.9% defined fetal bovine serum, heat inactivated (HyClone Laboratories Inc., Logan, UT, cat. SH30070.03HI), 389 ng/mL hydrocortisone (Sigma-Aldrich, cat. H4001), 9.7 ng/mL human EGF recombinant protein (Invitrogen, cat. PHG0313), 23.4 microg/mL adenine (Sigma-Aldrich, cat. A2786), 97.3 U/mL penicillin-streptomycin (Invitrogen, cat. 15140122), 1.9 mM L-glutamine (Invitrogen, cat. 25030081), and 9.7 microM Y-27632 dihydrochloride (Tocris Bioscience, Bristol, United Kingdom, cat. 1254). The PDCs were cultured in complete DMEM/F12 media without 9.7 microM Y-27632 dihydrochloride for at least two passages prior to the screen. The established cell line HOP-62 was cultured in RPMI 1640 medium, HEPES (Invitrogen, cat. 22400105) with 10% defined fetal bovine serum (HyClone Laboratories Inc., cat. SH30070.03) and 2 mM L-glutamine (Invitrogen, cat. 25030081). The pooled donor HUVEC were cultured in endothelial cell growth medium 2 (PromoCell, Heidelberg, Germany, cat. C-22011) and the hMSC were cultured in mesenchymal stem cell growth medium 2 (PromoCell, cat. C-28009). For all experiments, HUVEC and hMSC were used at passages </=5, while the malignant cell lines were used at passages </=15. […]

[1] = second compound 0.1 µM, first compound 0.0316 µM
[2] = second compound 0.1 µM, first compound 0.1 µM
[3] = second compound 0.316 µM, first compound 0.0316 µM
[4] = second compound 0.316 µM, first compound 0.1 µM
[5] = second compound 1 µM, first compound 0.0316 µM
[6] = second compound 1 µM, first compound 0.1 µM
[7] = second compound 3.16 µM, first compound 0.0316 µM
[8] = second compound 3.16 µM, first compound 0.1 µM
[9] = second compound 10 µM, first compound 0.0316 µM
[10] = second compound 10 µM, first compound 0.1 µM
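Also: compound exposure lasted seven days before readout.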
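For viability, T/C in this document: 100% = DMSO vehicle control viability.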

CC1(C)CCC(CN2CCN(c3ccc(C(=O)NS(=O)(=O)c4ccc(NCC5CCOCC5)c([N+](=O)[O-])c4)c(Oc4cnc5[nH]ccc5c4)c3)CC2)=C(c2ccc(Cl)cc2)C1 + C=CC(=O)N1CCN(c2nc(=O)n(-c3c(C)ccnc3C(C)C)c3nc(-c4c(O)cccc4F)c(F)cc23)C(C)C1
IC50 (second compound 0.1 µM): 7.91 µM
IC50 (second compound 0.316 µM): > 10 µM
IC50 (second compound 1 µM): > 10 µM
IC50 (second compound 3.16 µM): > 10 µM
IC50 (second compound 10 µM): > 10 µM
viability, T/C [1]: 83.4%
viability, T/C [2]: 102%
viability, T/C (second compound 0.1 µM, first compound 0.316 µM): 88%
viability, T/C (second compound 0.1 µM, first compound 1 µM): 81.2%
viability, T/C (second compound 0.1 µM, first compound 3.16 µM): 91.6%
viability, T/C (second compound 0.1 µM, first compound 10 µM): 39.9%
viability, T/C [3]: 93.9%
viability, T/C [4]: 89.1%
viability, T/C (second compound 0.316 µM, first compound 0.316 µM): 68.6%
viability, T/C (second compound 0.316 µM, first compound 1 µM): 79.4%
viability, T/C (second compound 0.316 µM, first compound 3.16 µM): 92.2%
viability, T/C (second compound 0.316 µM, first compound 10 µM): 61.5%
viability, T/C [5]: 90.9%
viability, T/C [6]: 73.7%
viability, T/C (second compound 1 µM, first compound 0.316 µM): 94.7%
viability, T/C (second compound 1 µM, first compound 1 µM): 96.6%
viability, T/C (second compound 1 µM, first compound 3.16 µM): 84.6%
viability, T/C (second compound 1 µM, first compound 10 µM): 65.6%
viability, T/C [7]: 63.3%
viability, T/C [8]: 96.4%
viability, T/C (second compound 3.16 µM, first compound 0.316 µM): 81.6%
viability, T/C (second compound 3.16 µM, first compound 1 µM): 64.1%
viability, T/C (second compound 3.16 µM, first compound 3.16 µM): 84.4%
viability, T/C (second compound 3.16 µM, first compound 10 µM): 61.3%
viability, T/C [9]: 77.8%
viability, T/C [10]: 84.3%
viability, T/C (second compound 10 µM, first compound 0.316 µM): 58.2%
viability, T/C (second compound 10 µM, first compound 1 µM): 81.9%
viability, T/C (second compound 10 µM, first compound 3.16 µM): 56.3%
viability, T/C (second compound 10 µM, first compound 10 µM): 70.6%

Cn1ncnc1[C@H]1c2n[nH]c(=O)c3cc(F)cc(c23)N[C@@H]1c1ccc(F)cc1 + C=CC(=O)N1CCN(c2nc(=O)n(-c3c(C)ccnc3C(C)C)c3nc(-c4c(O)cccc4F)c(F)cc23)C(C)C1
IC50 (second compound 0.1 µM): > 0.1 µM
IC50 (second compound 0.316 µM): > 0.1 µM
IC50 (second compound 1 µM): > 0.1 µM
IC50 (second compound 3.16 µM): > 0.1 µM
IC50 (second compound 10 µM): > 0.1 µM
viability, T/C (second compound 0.1 µM, first compound 0.000316 µM): 105%
viability, T/C (second compound 0.1 µM, first compound 0.001 µM): 89.7%
viability, T/C (second compound 0.1 µM, first compound 0.00316 µM): 106%
viability, T/C (second compound 0.1 µM, first compound 0.01 µM): 94.3%
viability, T/C [1]: 75.1%
viability, T/C [2]: 76.8%
viability, T/C (second compound 0.316 µM, first compound 0.000316 µM): 95.2%
viability, T/C (second compound 0.316 µM, first compound 0.001 µM): 83.4%
viability, T/C (second compound 0.316 µM, first compound 0.00316 µM): 94.8%
viability, T/C (second compound 0.316 µM, first compound 0.01 µM): 76%
viability, T/C [3]: 93%
viability, T/C [4]: 96.2%
viability, T/C (second compound 1 µM, first compound 0.000316 µM): 79.9%
viability, T/C (second compound 1 µM, first compound 0.001 µM): 71.8%
viability, T/C (second compound 1 µM, first compound 0.00316 µM): 94.1%
viability, T/C (second compound 1 µM, first compound 0.01 µM): 67.6%
viability, T/C [5]: 102%
viability, T/C [6]: 89.9%
viability, T/C (second compound 3.16 µM, first compound 0.000316 µM): 82%
viability, T/C (second compound 3.16 µM, first compound 0.001 µM): 85.1%
viability, T/C (second compound 3.16 µM, first compound 0.00316 µM): 88.3%
viability, T/C (second compound 3.16 µM, first compound 0.01 µM): 120%
viability, T/C [7]: 76.8%
viability, T/C [8]: 99.2%
viability, T/C (second compound 10 µM, first compound 0.000316 µM): 102%
viability, T/C (second compound 10 µM, first compound 0.001 µM): 75.4%
viability, T/C (second compound 10 µM, first compound 0.00316 µM): 80.5%
viability, T/C (second compound 10 µM, first compound 0.01 µM): 86.9%
viability, T/C [9]: 84.9%
viability, T/C [10]: 93.6%
